Assay results: ChEMBL document CHEMBL3124810, “Synthesis and biological evaluation of novel benzamide derivatives as potent smoothened antagonists” (Bioorg Med Chem Lett, 2014)
Values belong to the molecule of their own block, whether it stands above or below them. Active and inactive are the calls of the source. The rule behind the calls is not given here.

Legend:
[1] = target: T1, Protein smoothened (Homo sapiens, UniProt Q99835); assay: Antagonist activity at smoothened (unknown origin) expressed in mouse Shh Light2 cells co-expressing Gli-dependent reporter gene assessed as inhibition of Shh signaling at 2 uM by dual luciferase reporter gene assay; format: functional, cell-based; conditions: Shh Light II
T1 sequence (Q99835 whole entry): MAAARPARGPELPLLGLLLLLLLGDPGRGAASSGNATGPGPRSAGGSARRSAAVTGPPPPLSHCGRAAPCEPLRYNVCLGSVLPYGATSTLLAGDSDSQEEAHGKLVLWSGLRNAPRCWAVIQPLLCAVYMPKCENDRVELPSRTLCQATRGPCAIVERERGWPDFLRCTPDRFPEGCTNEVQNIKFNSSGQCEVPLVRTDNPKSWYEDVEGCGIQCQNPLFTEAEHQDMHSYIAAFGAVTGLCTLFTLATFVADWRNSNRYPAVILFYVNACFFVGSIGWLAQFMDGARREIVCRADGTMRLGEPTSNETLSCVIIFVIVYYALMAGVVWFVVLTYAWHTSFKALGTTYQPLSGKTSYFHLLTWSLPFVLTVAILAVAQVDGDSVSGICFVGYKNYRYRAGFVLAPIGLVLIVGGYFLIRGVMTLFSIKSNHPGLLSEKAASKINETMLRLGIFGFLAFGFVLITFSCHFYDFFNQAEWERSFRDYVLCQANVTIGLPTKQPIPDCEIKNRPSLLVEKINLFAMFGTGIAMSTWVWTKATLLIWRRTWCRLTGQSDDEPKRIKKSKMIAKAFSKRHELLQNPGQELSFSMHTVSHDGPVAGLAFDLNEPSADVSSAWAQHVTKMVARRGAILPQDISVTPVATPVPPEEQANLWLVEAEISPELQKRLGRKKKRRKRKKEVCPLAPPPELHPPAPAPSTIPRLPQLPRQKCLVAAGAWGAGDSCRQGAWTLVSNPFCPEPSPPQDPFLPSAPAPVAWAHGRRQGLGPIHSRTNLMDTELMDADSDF

[2] = target: T1, Protein smoothened; assay: Antagonist activity at smoothened (unknown origin) expressed in mouse Shh Light2 cells co-expressing Gli-dependent reporter gene assessed as inhibition of Shh signaling at 0.5 uM by dual luciferase reporter gene assay; format: functional, cell-based; conditions: Shh Light II
[3] = organism: Danio rerio; assay: Antagonist activity at smoothened in zebrafish embryo assessed as reduction in Gli-dependent RFP expression compound treated at 20 to 80 uM at 2 hrs post fertilization measured 36 hrs post fertilization
[4] = tested on: SW1353; assay: Antiproliferative activity against human SW1353 cells assessed as growth inhibition at 10 uM after 48 hrs by MTT assay; format: functional, cell-based
[5] = tested on: A549; assay: Antiproliferative activity against human A549 cells assessed as growth inhibition at 10 uM after 48 hrs by MTT assay; format: functional, cell-based
[6] = tested on: Daoy; assay: Antiproliferative activity against human DaOY cells assessed as growth inhibition at 10 uM after 48 hrs by MTT assay; format: functional, cell-based
[7] = tested on: HCT-116; assay: Antiproliferative activity against human HCT116 cells assessed as growth inhibition at 10 uM after 48 hrs by MTT assay; format: functional, cell-based
[8] = Inhibition of Hedgehog signaling in mouse NIH/3T3 cells assessed as down regulation of mPTCH1 mRNA expression at 10 uM; format: cell-based; conditions: NIH3T3
[9] = Inhibition of hedgehog signaling in mouse MSC cells assessed as down regulation of alkaline phosphatase at 20 to 80 uM; format: cell-based
[10] = target: T1, Protein smoothened; assay: Displacement of BODIPY-cyclopamine from human SMO cyclopamine-binding site expressed in HEK293 cells at 10 to 100 nM after 4 hrs by Hoechst 33342 staining-based assay; format: cell-based
[11] = target: T1, Protein smoothened; assay: Antagonist activity at smoothened (unknown origin) expressed in mouse Shh Light2 cells co-expressing Gli-dependent reporter gene assessed as inhibition of Hh signaling by dual luciferase reporter gene assay; format: functional, cell-based, Shh Light II
[12] = target: T1, Protein smoothened; assay: Displacement of BODIPY-cyclopamine from human SMO cyclopamine-binding site expressed in HEK293 cells at 50 to 200 nM after 4 hrs by Hoechst 33342 staining-based assay; format: cell-based

inhibition [1]: 65.9%
Structure (SMILES): CCc1ccccc1NC(=O)c1cc(NC(=O)c2ccc(S(C)(=O)=O)cc2Cl)ccc1Cl

inhibition [2]: inactive | inhibition [1]: 0%
Structure (SMILES): CS(=O)(=O)c1ccc(C(=O)Nc2ccc(Cl)c(NC(=O)Nc3ccc(Cl)cc3)c2)c(Cl)c1

inhibition [3]: Active | Activity [10]: Active | inhibition [1]: 72.2% | IC50 [11]: 40 nM
Structure (SMILES): CS(=O)(=O)c1ccc(C(=O)Nc2ccc(Cl)c(C(=O)Nc3cccc(O)c3)c2)c(Cl)c1
growth inhibition (GI) [4]: Active | growth inhibition (GI) [5]: Active | growth inhibition (GI) [6]: Active | growth inhibition (GI) [7]: Active | inhibition [8]: Active | inhibition [9]: Active

inhibition [2]: inactive | inhibition [1]: 55.4%
Structure (SMILES): CS(=O)(=O)c1ccc(C(=O)Nc2ccc(Cl)c(NC(=O)Nc3ccc(Br)cc3F)c2)c(Cl)c1

inhibition [1]: 30.5%
Structure (SMILES): CS(=O)(=O)c1ccc(C(=O)Nc2ccc(Cl)c(NC(=O)c3ccc(Cl)cn3)c2)c(Cl)c1

inhibition [1]: 70.4%
Structure (SMILES): CCOc1ccc(NC(=O)c2cc(NC(=O)c3ccc(S(C)(=O)=O)cc3Cl)ccc2Cl)cc1

inhibition [3]: Active
Structure (SMILES): CS(=O)(=O)c1ccc(C(=O)Nc2ccc(Cl)c(-c3ccccn3)c2)c(Cl)c1
growth inhibition (GI) [4]: Active | growth inhibition (GI) [5]: Active | growth inhibition (GI) [6]: Active | growth inhibition (GI) [7]: Active | inhibition [8]: Active | inhibition [9]: Active

inhibition [1]: 56.8%
Structure (SMILES): Cc1cc(C)cc(NC(=O)c2cc(NC(=O)c3ccc(S(C)(=O)=O)cc3Cl)ccc2Cl)c1

inhibition [1]: 73%
Structure (SMILES): Cc1ccccc1NC(=O)c1cc(NC(=O)c2ccc(S(C)(=O)=O)cc2Cl)ccc1Cl

inhibition [1]: 69.8%
Structure (SMILES): COc1ccc(NC(=O)c2cc(NC(=O)c3ccc(S(C)(=O)=O)cc3Cl)ccc2Cl)cc1

inhibition [1]: 72.9%
Structure (SMILES): CS(=O)(=O)c1ccc(C(=O)Nc2ccc(Cl)c(C(=O)Nc3cccnc3)c2)c(Cl)c1

inhibition [2]: inactive | inhibition [1]: 73.8%
Structure (SMILES): COc1ccc(NC(=O)Nc2cc(NC(=O)c3ccc(S(C)(=O)=O)cc3Cl)ccc2Cl)cc1

inhibition [1]: 0%
Structure (SMILES): CS(=O)(=O)c1ccc(C(=O)Nc2ccc(Cl)c(C(=O)Nc3ccc(Cl)cc3Cl)c2)c(Cl)c1

inhibition [1]: 28.4%
Structure (SMILES): CS(=O)(=O)c1ccc(C(=O)Nc2ccc(Cl)c(NC(=O)c3cccc(C(F)(F)F)c3)c2)c(Cl)c1

inhibition [1]: 51.4%
Structure (SMILES): CS(=O)(=O)c1ccc(C(=O)Nc2ccc(Cl)c(NC(=O)c3ccc(Cl)s3)c2)c(Cl)c1

Activity [12]: Active | inhibition [1]: 76.3% | IC50 [11]: 100 nM
Structure (SMILES): Cc1cccc(NC(=O)c2cc(NC(=O)c3ccc(S(C)(=O)=O)cc3Cl)ccc2Cl)c1C

inhibition [1]: 46.6%
Structure (SMILES): CS(=O)(=O)c1ccc(C(=O)Nc2ccc(Cl)c(C(=O)Nc3cc(Cl)cc(Cl)c3)c2)c(Cl)c1

IC50 [11]: 300 nM
Structure (SMILES): CS(=O)(=O)c1ccc(C(=O)Nc2ccc(Cl)c(NC(=O)Nc3ccc(C(F)(F)F)cc3Cl)c2)c(Cl)c1

inhibition [1]: 53.2%
Structure (SMILES): CS(=O)(=O)c1ccc(C(=O)Nc2ccc(Cl)c(NC(=O)c3ccccn3)c2)c(Cl)c1

inhibition [1]: 67.5%
Structure (SMILES): Cc1ccc(NC(=O)c2cc(NC(=O)c3ccc(S(C)(=O)=O)cc3Cl)ccc2Cl)cc1

inhibition [2]: inactive | inhibition [1]: 66.1%
Structure (SMILES): CCOc1ccc(NC(=O)Nc2cc(NC(=O)c3ccc(S(C)(=O)=O)cc3Cl)ccc2Cl)cc1

inhibition [1]: 3.6%
Structure (SMILES): COc1cc(OC)cc(C(=O)Nc2cc(NC(=O)c3ccc(S(C)(=O)=O)cc3Cl)ccc2Cl)c1
